SMILES strings stand for the structures. Calls of active or inactive are those of the source. The rule behind the calls is not given here. Bounds are passed on as bounds.

Data set [1] in a line: Selectivity index, ratio of CC50 for MDCK cells to IC50 for Influenza A virus (A/Thailand/Kan353/2004(H5N1). Particulars: dog, read-out: Ratio CC50/IC50. It is filed as toxicity.
Data set [2] can be described thus: Antiviral activity against Influenza A virus (A/Thailand/Kan353/2004(H5N1)) co-expressing NA plasmid infected in 293T cells assessed as inhibition of viral entry incubated for 30 mins followed by addition of cells measured after 48 hrs by luciferase reporter gene assay. It is filed as functional, cell-based. To be noted: HEK-293T. (A reporter such as luciferase makes a cellular process visible.)

Data set [3] is described as follows: Cytotoxicity against MDCK cells after 2 days by MTT assay. The format is cell-based, Canis lupus familiaris. To be noted: dog. On the technique in general: Tetrazolium assays rely on reduction of a dye to a coloured formazan, in cell work by metabolically active cells.
The test system of data set [4] is Influenza A virus (A/Viet Nam/1203/2004(H5N1)). Briefly: (§1) Binding affinity to Influenza A virus (A/Viet Nam/1203/2004(H5N1)) Fc-tagged hemagglutinin 2 after 250 secs by SPR analysis.
The nature of data set [5]: as §1.
The target of data set [6] is Peptidyl-prolyl cis-trans isomerase FKBP1A (Homo sapiens) (UniProt P62942). Briefly: Binding affinity to FKBP12 (unknown origin) after 250 secs by SPR analysis. (In general: SPR reads the build-up and loss of mass on a sensor chip optically.)
Peptidyl-prolyl cis-trans isomerase FKBP1A (Homo sapiens), sequence (P62942 whole entry): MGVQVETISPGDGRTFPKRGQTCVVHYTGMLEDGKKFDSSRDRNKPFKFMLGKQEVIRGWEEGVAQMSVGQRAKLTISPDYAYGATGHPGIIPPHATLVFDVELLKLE
The next data set deals with Influenza A virus. Briefly: Inhibition of Influenza A virus H5N1 neuraminidase N1 subtype at 20 uM/L after 30 mins by fluorescence assay.
Data set [7] relates to Influenza A virus (A/Vietnam/1194/2004(H5N1)). Briefly: (§2) Binding affinity to Influenza A virus (A/Vietnam/1194/2004(H5N1)) His-tagged hemagglutinin after 250 secs by SPR analysis.
The nature of data set [8]: as §2.
The test system of data set [9] is Human immunodeficiency virus 1. Briefly: Antiviral activity against VSV-g pseudotyped HIV1 infected in 293T cells cotransfected with HA and NA plasmid incubated for 30 mins followed by addition of cells measured after 48 hrs by luciferase reporter gene assay. It is filed as functional, cell-based.
In data set [10] the test system is Influenza A virus (A/Puerto Rico/8/1934(H1N1)). Briefly: Inhibition of Influenza A virus (A/Puerto Rico/8/34(H1N1)) […] hemagglutination of chicken RBC at 20 uM incubated for 1 hr followed by chicken RBC addition measured for 10 mins.

As usually defined, the IC50 is the concentration needed to halve the response being measured. As a reminder, the CC50 is the concentration that lowers cell viability or growth by half. Read a high CC50 as better tolerance by the cells. Turning to `COC(=O)[C@]12CCC(C)(C)C[C@H]1C1=CC[C@@H]3[C@@]4(C)CC[C@H](O[C@@H]5O[C@H](CO)[C@@H](O)[C@H](O[C@@H]6O[C@@H](C)[C@H](O)[C@@H](O)[C@H]6O)[C@H]5O[C@@H]5O[C@@H](C)[C@H](O)[C@@H](O)[C@H]5O)C(C)(C)[C@@H]4CC[C@@]3(C)[C@]1(C)CC2`, the selectivity ratio in data set [1] is < 1. Besides, the IC50 in [2] was > 50 µM. The CC50 at 48 h in data set [3] was found to be 22.4 µM.
As for `COC(=O)[C@]12CCC(C)(C)C[C@H]1C1=CC[C@@H]3[C@@]4(C)CC[C@H](O[C@@H]5O[C@H](CO)[C@@H](O)[C@H](O[C@@H]6O[C@@H](C)[C@H](O)[C@@H](O)[C@H]6O)[C@H]5O)C(C)(C)[C@@H]4CC[C@@]3(C)[C@]1(C)CC2`, the selectivity ratio in data set [1] was < 1. Further, the IC50 in [2] is > 50 µM. The molecule further returned a CC50 at 48 h in data set [3] of 25.3 µM.
Regarding `C[C@H]1O[C@H](O[C@@H]2[C@H](O)[C@@H](O[C@H]3O[C@H](C)[C@@H](O)[C@H](O)[C@@H]3O)[C@H](O[C@H]3CC[C@]4(C)[C@H]5CC=C6[C@@H]7CC(C)(C)CC[C@]7(C(=O)OCc7ccccc7)CC[C@@]6(C)[C@]5(C)CC[C@H]4C3(C)C)O[C@@H]2CO)[C@@H](O)[C@@H](O)[C@@H]1O`, the selectivity ratio in [1] was found to be 8.8. Besides, the IC50 in data set [2] amounted to 9.36 µM. Besides, the CC50 at 48 h in data set [3] amounted to 82.4 µM.
Usually Kd stands for the constant that tells how readily two partners part at equilibrium. High values mean a looser complex, low ones a tighter complex. In the case of `C[C@@H]1O[C@@H](O[C@H]2[C@H](O[C@@H]3CC[C@]4(C)[C@H]5CC=C6[C@@H]7CC(C)(C)CC[C@]7(C(=O)OCc7ccccc7)CC[C@@]6(C)[C@]5(C)CC[C@H]4C3(C)C)O[C@H](CO)[C@@H](O[C@@H]3O[C@@H](C)[C@H](O)[C@@H](O)[C@H]3O)[C@@H]2O)[C@H](O)[C@H](O)[C@H]1O`, the Activity entry in data set [4] and in data set [7] was “Dose-dependent effect” in each case. Moreover, the Kd worked out at 0.000553 µM in [5] and 0.443 µM in [8]. Also, the outcome in data set [6] and in [9] was inactive. The inhibition result in the data set with Influenza A virus is “inactive”. For the same molecule, the selectivity ratio in [1] was > 34. Moreover, in [2], the IC50 came to 5.88 µM. Further, the CC50 at 48 h in [3] is > 200 µM.
On to `C[C@@H]1O[C@@H](O[C@H]2[C@H](O[C@H]3CC[C@]4(C)[C@H]5CC=C6[C@@H]7CC(C)(C)CC[C@]7(C(=O)OCc7ccccc7)CC[C@@]6(C)[C@]5(C)CC[C@H]4C3(C)C)O[C@H](CO)[C@@H](O[C@@H]3O[C@@H](C)[C@H](O)[C@@H](O)[C@H]3O)[C@@H]2O)[C@H](O)[C@H](O)[C@H]1O`, for which the selectivity ratio in data set [1] was 4.9. The IC50 in [2] was 4.82 µM. The molecule further displayed a CC50 at 48 h in data set [3] of 23.5 µM.
Turning to `C[C@@H]1O[C@H](O[C@H]2[C@H](O[C@H]3CC[C@]4(C)[C@H]5CC=C6[C@@H]7CC(C)(C)CC[C@]7(C(=O)OCc7ccccc7)CC[C@@]6(C)[C@]5(C)CC[C@H]4C3(C)C)O[C@H](CO)[C@@H](O[C@H]3O[C@@H](C)[C@@H](O)[C@@H](O)[C@@H]3O)[C@@H]2O)[C@@H](O)[C@H](O)[C@@H]1O`, the inhibition entry in the data set on Influenza A virus was “inactive”. Also, the selectivity ratio in data set [1] came out at 3.2. In [2], the IC50 came out at 8.65 µM. In addition, the result in [9] was inactive. In addition, it took 27.4 µM to reach half-maximal cytotoxicity in data set [3] (CC50 at 48 h).
For the molecule `CC1(C)CC[C@]2(C(=O)OCc3ccccc3)CC[C@]3(C)C(=CC[C@@H]4[C@@]5(C)CC[C@H](O[C@@H]6O[C@H](CO)[C@@H](O[C@@H]7OC[C@@H](O)[C@@H](O)[C@@H]7O)[C@H](O)[C@H]6O[C@@H]6OC[C@@H](O)[C@@H](O)[C@@H]6O)C(C)(C)[C@@H]5CC[C@]43C)[C@@H]2C1`, in data set [1], the selectivity ratio was < 1. For the same molecule, the IC50 in data set [2] is > 50 µM. In data set [3], this molecule came in with a CC50 at 48 h of 48.2 µM.
As to `O=C(NCCN1CCCCC1)c1cc(F)cc(C(F)(F)F)c1`, the selectivity ratio in [1] came out at 332. In addition, in [2], the IC50 stood at 4.45 µM.
On the same counts, the results for `COC(=O)[C@]12CCC(C)(C)C[C@H]1C1=CC[C@@H]3[C@@]4(C)CC[C@H](O[C@@H]5O[C@H](CO)[C@@H](O[C@@H]6O[C@@H](C)[C@H](O)[C@@H](O)[C@H]6O)[C@H](O)[C@H]5O[C@@H]5O[C@@H](C)[C@H](O)[C@@H](O)[C@H]5O)C(C)(C)[C@@H]4CC[C@@]3(C)[C@]1(C)CC2` are 3.6 and 4.74 µM.
On to `C[C@@H]1O[C@@H](O[C@H]2[C@H](O[C@H]3CC[C@]4(C)[C@H]5C(=O)C=C6[C@@H]7CC(C)(C)CC[C@]7(C(=O)OCc7ccccc7)CC[C@@]6(C)[C@]5(C)CC[C@H]4C3(C)C)O[C@H](CO)[C@@H](O[C@@H]3O[C@@H](C)[C@H](O)[C@@H](O)[C@H]3O)[C@@H]2O)[C@H](O)[C@H](O)[C@H]1O`, for which the Activity result in data set [4] and in [7] was “Dose-dependent effect” each time. Also, the dissociation constant Kd was determined as 0.00386 µM in [5] and 0.0617 µM in [8]. The result in [6] and in data set [9] was inactive. For the same molecule, the inhibition entry (in the data set with Influenza A virus; in data set [10]) was “inactive” throughout. The selectivity ratio in data set [1] was found to be 22.9. The IC50 in data set [2] was 4.05 µM. Also, the CC50 at 48 h in data set [3] is 92.7 µM.
`COC(=O)[C@]12CCC(C)(C)C[C@H]1C1=CC[C@@H]3[C@@]4(C)CC[C@H](O[C@@H]5O[C@H](CO)[C@H](O[C@H]6O[C@H](C)[C@@H](O)[C@H](O)[C@@H]6O)[C@H](O)[C@H]5O[C@H]5O[C@H](C)[C@@H](O)[C@H](O)[C@@H]5O)C(C)(C)[C@@H]4CC[C@@]3(C)[C@]1(C)CC2`: in data set [1], the selectivity ratio was 4.1. Moreover, the IC50 in [2] was found to be 11.1 µM. Moreover, half-maximal cytotoxicity in data set [3] (CC50 at 48 h) was put at 45.6 µM.
`CC1(C)CC[C@]2(C(=O)OCc3ccccc3)CC[C@]3(C)C(=CC[C@@H]4[C@@]5(C)CC[C@H](O[C@@H]6O[C@H](CO)[C@@H](O[C@H]7OC[C@@H](O)[C@H](O)[C@H]7O)[C@H](O)[C@H]6O[C@H]6OC[C@@H](O)[C@H](O)[C@H]6O)C(C)(C)[C@@H]5CC[C@]43C)[C@@H]2C1`: the selectivity ratio in data set [1] was < 1. Further, the IC50 in data set [2] was > 50 µM. The CC50 at 48 h in [3] was determined as 20.8 µM.
Regarding `CC1(C)CC[C@]2(C(=O)OCc3ccccc3)CC[C@]3(C)C(=CC[C@@H]4[C@@]5(C)CC[C@H](O[C@@H]6O[C@H](CO)[C@@H](O[C@@H]7OC[C@H](O)[C@H](O)[C@H]7O)[C@H](O)[C@H]6O[C@@H]6OC[C@H](O)[C@H](O)[C@H]6O)C(C)(C)[C@@H]5CC[C@]43C)[C@@H]2C1`, the selectivity ratio in [1] was < 1. For the same molecule, the IC50 in data set [2] was > 50 µM. Half-maximal cytotoxicity in data set [3] (CC50 at 48 h) was put at 26.4 µM.
On the same counts, the results for `COC(=O)[C@]12CCC(C)(C)C[C@H]1C1=CC[C@@H]3[C@@]4(C)CC[C@H](O[C@@H]5O[C@H](CO)[C@@H](O)[C@H](O)[C@H]5O[C@@H]5O[C@@H](C)[C@H](O)[C@@H](O)[C@H]5O)C(C)(C)[C@@H]4CC[C@@]3(C)[C@]1(C)CC2` are 1.4, 16.3 µM and 23.6 µM.
As to `COC(=O)[C@]12CCC(C)(C)C[C@H]1C1=CC(=O)[C@@H]3[C@@]4(C)CC[C@H](O[C@@H]5O[C@H](CO)[C@@H](O[C@@H]6O[C@@H](C)[C@H](O)[C@@H](O)[C@H]6O)[C@H](O)[C@H]5O[C@@H]5O[C@@H](C)[C@H](O)[C@@H](O)[C@H]5O)C(C)(C)[C@@H]4CC[C@@]3(C)[C@]1(C)CC2`, the selectivity ratio in data set [1] turned out to be 8.3. Moreover, in [2], the IC50 turned out to be 4.1 µM. The molecule also returned a CC50 at 48 h in [3] of 33.8 µM.
Regarding `C[C@H]1O[C@H](O[C@H]2[C@H](O[C@H]3CC[C@]4(C)[C@H]5CC=C6[C@@H]7CC(C)(C)CC[C@]7(C(=O)OCc7ccccc7)CC[C@@]6(C)[C@]5(C)CC[C@H]4C3(C)C)O[C@H](CO)[C@@H](O[C@H]3O[C@H](C)[C@@H](O)[C@H](O)[C@@H]3O)[C@@H]2O)[C@@H](O)[C@@H](O)[C@@H]1O`, the selectivity ratio in [1] was < 1. Moreover, in [2], the IC50 is > 50 µM. The CC50 at 48 h in data set [3] stood at 52.4 µM.
Consider `COC(=O)[C@]12CCC(C)(C)C[C@H]1C1=CC[C@@H]3[C@@]4(C)CC[C@@H](O[C@@H]5O[C@H](CO)[C@@H](O[C@@H]6O[C@@H](C)[C@H](O)[C@@H](O)[C@H]6O)[C@H](O)[C@H]5O[C@@H]5O[C@@H](C)[C@H](O)[C@@H](O)[C@H]5O)C(C)(C)[C@@H]4CC[C@@]3(C)[C@]1(C)CC2`, for which, in [1], the selectivity ratio was > 40. Also, the IC50 in data set [2] came to 5.06 µM. Further, the CC50 at 48 h in data set [3] is > 200 µM.

Source of the values: ChEMBL document CHEMBL4052707, “Structure-activity relationships of 3-O-β-chacotriosyl oleanic acid derivatives as entry inhibitors for highly pathogenic H5N1 influenza virus” (Bioorg Med Chem, 2017).
